Experimental data published in US20120277199A1, “Modulation of Gel Temperature of Poloxamer-Containing Formulations” (Otonomy, Inc., priority 2009, published 2012).
≈ marks a conversion by molar mass, not a printed value. One block for each compound: values may come before it.

Tests used:
[1] = cited from earlier work
[2] = Stability to autoclaving (impurity profile, assay, pH, osmolality, appearance); format: physicochemical; conditions: autoclaving at 250° F. for 30 minutes in P407
Method: Cold 16% P407 in 50 mM TRIS buffers-saline (pH 7.4 and osmolality of 280 mOsM) was placed in a open container, then ciprofloxacin free base or ciprofloxacin free base hydrate (3.5 moles) was sprinkled in while mixing. Ciprofloxacin suspension was mixed for not less than 10 minutes, then micronized dexamethasone was added slowly to the mixture while mixing. The homogenous suspension was then transferred to 3 mL vials and filled at different volumens (v1=4 g, v2, 3 g and v3 2 g). The glass vial were sealed with West stoppers (fluorotec coated) and Aluminum seals, followed by autoclaving at 250° F. for 30 minutes.
Weigh 58.8 g of the above buffer, chill down, then sprinkle while mixing 11.291 g of poloxamer 407 NF (BASF lot WPNF580C), mix until fully dissolved. Weigh 64.8 g of a the 16% P407 (above solution) into a 100 mL glass bottle containing a 35 mm stir bar then sprinkle 2.2915 g of ciprofloxacin hydrate (Neuland lot CHI071000). Mix for not less than 2 hours at a setting of 11 (IKA stir plate) minutes while cooling then fill 31 two mL vials with approximately 2 g of suspension, stopper them with 13 mm West stoppers and seal them with Al seal, autoclave for 30 minutes @ 250° C.

[3] = Perilymph pharmacokinetics after intratympanic injection in guinea pigs; conditions: guinea pig, in vivo
Method: Guinea pigs were administered 50 μl via intratympanic delivery and PK in the perilymph was measured as described herein.
Female guinea pigs (Charles River) weighing 200-300 g, of approximately 6-8 weeks of age are used (N=4 per group). Prior to any procedure, animals are anesthetized using a combination of xylazine (10 mg/kg), ketamine (40 mg/kg) and acepromazine (0.75 mg/kg) for up to an hour via the intramuscular route. If needed, an intraoperative booster is administered intraperitoneally representing one-tenth of the original dose. Intratympanic injection—Each animal is positioned so that the head is tilted at an angle to favor injection towards the round window niche. Briefly, under visualization with an operating microscope, 50 μl of formulations comprising 0 to 50% active agent and varying concentrations of P407 are administered to the animals. […] During the procedure and until recovery, animals are placed on a temperature controlled (40° C.) heating pad until consciousness is regained at which time they are returned to the vivarium. Perilymph sampling procedure—The skin behind the ear of anesthetized guinea pigs is shaved and disinfected with povidone-iodine. An incision is then made behind the ear, and muscles are carefully retracted from over the bulla. […]
Determination of active agent concentrations is performed using high pressure liquid chromatography (HPLC) combined with mass spectrometry detection (MS). […] The samples are analyzed by reversed phase HPLC (1100 series, Agilent) using an Atlantis dC18 column maintained at 40° C. The mobile phase is nebulized using heating nitrogen in a Z-spray source/interface and the ionized compounds detected using MS/MS (Tandem quadrupole mass spectrometer, Quattro Ultima, Waters). Peak heights of an active agent are determined using MassLynx software (Waters). […]
Pharmacokinetic parameters are calculated using conventional noncompartmental pharmacokinetic methods. The apparent clearance (CL app) is calculated as the ratio between the administered intratympanic dose and the exposure (AUC). […]

[4] = In vitro dissolution in snapwells, mean dissolution time (MDT); format: physicochemical
Method: Dissolution was performed at 37° C. in snapwells (6.5 mm diameter polycarbonate membrane with a pore size of 0.4 μm). […] Samples were taken every hour (0.1 mL withdrawn and replaced with warm buffer).
Dissolution is performed at 37° C. in snapwells (6.5 mm diameter polycarbonate membrane with a pore size of 0.4 μm), 0.2 mL of a gel formulation described herein is placed into snapwell and left to harden, then 0.5 mL buffer is placed into reservoir and shaken using a Labline orbit shaker at 70 rpm. Samples are taken every hour (0.1 mL withdrawn and replace with warm buffer). […] Pluronic concentration is analyzed at 624 nm using the cobalt thiocyanate method.
The mean dissolution time (MDT) is the sum of different periods of time the drug molecules stay in the matrix before release, divided by the total number of molecules and is optionally calculated by:
Dissolution was performed at 37° C. in snapwells (6.5 mm diameter polycarbonate membrane with a pore size of 0.4 μm), 0.2 mL of formulation was placed into snapwell and left to harden, then 0.5 mL of 0.9% saline was placed into reservoir and shaken using a Labline orbit shaker at 70 rpm. Samples were taken every hour (0.1 mL withdrawn and replace with warm buffer). Samples analyzed for dexamethasone and ciprofloxacin concentration by UV at 245 and 270 nm, respectively using a Evolution 160 UV/Vis spectrophotometer (Thermo Scientific). Quantitation performed against an external calibration standard.
Dissolution was performed at 37° C. in snapwells (6.5 mm diameter polycarbonate membrane with a pore size of 0.4 μm), 0.2 mL of gel was placed into snapwell and left to harden, 0.5 mL of 0.9% saline was placed into reservoir and shaken using a Labline orbit shaker at 70 rpm. Samples were taken every hour (All the saline withdrawn and replace with warm 0.9% saline with an osmolality of 290 mOsm). Samples were analyzed for Ciprofloxacin by HPLC.

[5] = physchem; conditions: aqueous with cosolvent or surfactant or cyclodextrin, thermodynamic from solid
Method: In addition, modifying the solubility of the active agent can also have an effect on the properties of the thermosensitive gel.
A formulation comprising 0.5% w/w SP600125 in 16% Poloxamer 407 was made by dispersing 5.3 mg of SP600125 (LC Labs) in 994.7 mg of a 16% P407 in 50 mM Tris buffer.

[6] = systemically administered (oral or intravenously); cited from earlier work

Compound: Cc1cccc(CN2CCN(C(c3ccccc3)c3ccc(Cl)cc3)CC2)c1 (stereo not shown) [meclizine]
- solubility in water [1]: insoluble in water

Compound: C[C@H]1C[C@@H]2[C@H]([C@@H](O)C[C@@]3(C)[C@H]2CC[C@]3(O)C(=O)COC(=O)CCC(=O)[O-])[C@@]2(C)C=CC(=O)C=C12.[Na+] [MPS]
- peak methylprednisolone levels in the perilymph [3]: 6.5 µg/mL
- MDT ([4]; 17% Poloxamer 407 formulation): about 3 h

Compound: C[C@@H]1C[C@H]2[C@@H]3CCC4=CC(=O)C=C[C@]4(C)[C@@]3(F)[C@@H](O)C[C@]2(C)[C@@]1(O)C(=O)COP(=O)(O)O [DSP, dexamethasone sodium phosphate]
- MDT ([4]; 17% Poloxamer 407 formulation): about 3 h
- MDT ([4]; DSP aqueous solution, micronized DEX suspension in water (no poloxamer)): 0.3 h

Compound: O=P(O)(O)C(O)(Cn1ccnc1)P(=O)(O)O [Zoledronate]
- in vitro mean dissolution time (MDT) ([4]; 16% P407 formulation, FIG. 6): 2 h
- amount reaching the perilymph in the inner ear and/or otic bone structure [6]: about 0.1 ng/day

Compound: O=P(O)(O)C(O)(Cc1cccnc1)P(=O)(O)O [rosidronate]
- amount reaching the perilymph in the inner ear and/or otic bone structure [6]: about 0.6 ng/day

Compound: CN(C)CCC=C1c2ccccc2CCc2ccccc21 [amitriptyline]
- water solubility [1]: greater than 100 mg/mL

Compound: C[C@H]1C[C@@H]2[C@H]([C@@H](O)C[C@@]3(C)[C@H]2CC[C@]3(O)C(=O)CO)[C@@]2(C)C=CC(=O)C=C12 [MP]
- decrease of perilymph levels after peak [3]: decreased slowly over 10 days
- peak methylprednisolone levels in the perilymph [3]: 19.2 µg/mL

Further lines, with some results ahead:

- change observed after autoclaving ([2]; hydrate): minimal growth or recrystallization
Compound: O=C(O)c1cn(C2CC2)c2cc(N3CCNCC3)c(F)cc2c1=O [ciprofloxacin free base hydrate, ciprofloxacin hydrate]

- solubility [5]: ~190 µg/mL (≈ 863 µM)
Compound: O=C1c2ccccc2-c2n[nH]c3cccc1c23 [SP600125, anthra[1,9-cd]pyrazol-6(2H)-one]
- reported water solubility [1]: 11 µg/mL
- LogD (7.4) ([1]; pH 7.4): 3.2

- change observed after autoclaving [2]: appreciable particle size increase
Compound: O=C(O)c1cn(C2CC2)c2cc(N3CCNCC3)c(F)cc2c1=O [ciprofloxacin free base, ciprofloxacin]
